In brackets after ≈: the same amount, converted by molar mass. Several values for one entry are separate records, joined by “and”; a condition that tells them apart may be missing. Equal entries are not always repeated.
System: pAKT S473
Test: CyTOF maximal inhibition in Undefined/Immature Myeloid cells: pAKT
Format: in vivo, human
From the text: Pharmacodynamic endpoints included the measurement of inhibition of pAXL, pERK, pAKT, pS6 and pSTAT1/3/5 in blast cells (defined as cells with abnormal surface marker expression as compared to healthy donor peripheral blood mononuclear cells and undefined/immature myeloid cells (defined as cells carrying myeloid markers but lacking distinguishing terminal differentiation markers). Mass cytometry time of flight (CyTOF) was used for the determination of the pharmacodynamic markers using a previously validated and tested panel of mass-tagged antibodies[39],[40]. The antibodies in the panel are listed in Supplementary Table 5. Briefly, fixed leukocytes from peripheral blood were barcoded using a 20-plex metal barcoding kit (Standard Biotools, Cell-ID 201060) according to manufacturer’s protocol, allowing all the samples from a single individual to be stained and analysed in parallel. All analysis runs included barcoded peripheral blood mononuclear cells (PBMCs) from at least one healthy donor and an identical barcoded reference sample (mix of PBMCs from six healthy donors). […]
For each population, marker, and sample, the 95th percentile of the non-transformed expression values was calculated. […]

Nc1nc(Nc2ccc3c(c2)CC[C@@H](N2CCCC2)CC3)nn1-c1cc2c(nn1)-c1ccccc1CCC2 [Bemcentinib]
EC50 (Homo sapiens, Undefined/Immature Myeloid cells, N = 12 patients, read-out: EC50 (± standard error), pAKT S473 inhibition): 0.162 µg/mL (≈ 0.32 µM) | Maximum inhibition (percent) pAKT (S473) (Supplementary Figure 1d, individual patients): 59.9% and 67.4% and 81.4% and 10.2% and 98.8% and 2.4% and 56.3% and 0% and 5.8% and 33.9% and 39.1% and 94.9%

Source: paper PMC11930985 (Nature Communications, 2025)
